In the supplement of paper PMC12350171:

Key:
[1] = tested on: Yersinia pseudotuberculosis; experiment: IC25 growth inhibition; higher = less potent
Procedure, shortened: (§1)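 Monocultures grown overnight in mGAM were added to pre-reduced plates holding twofold drug dilutions, giving a starting OD578 of 0.01 and 1% DMSO (or water). Growth was followed anaerobically by hourly OD578 readings in a plate reader, with at least three biological replicates. The median growth-curve AUC per concentration was forced to be monotonic. IC25 was the lowest concentration with median AUC below 0.75, reported as a tested interval.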

Ruminococcus gnavus = experiment: IC25 growth inhibition; higher = less potent
Procedure, shortened: as §1

Roseburia intestinalis = experiment: IC25 growth inhibition; higher = less potent
Procedure, shortened: as §1

Clostridium ramosum = experiment: IC25 growth inhibition; higher = less potent
Procedure, shortened: as §1

Dorea formicigenerans = experiment: IC25 growth inhibition; higher = less potent
Procedure, shortened: as §1

[2] = tested on: Yersinia enterocolitica WA-314; experiment: IC25 growth inhibition; higher = less potent
Procedure, shortened: as §1

Parabacteroides merdae = experiment: IC25 growth inhibition; higher = less potent
Procedure, shortened: as §1

Clostridium bolteae = experiment: IC25 growth inhibition; higher = less potent
Procedure, shortened: as §1

Collinsella aerofaciens = experiment: IC25 growth inhibition; higher = less potent
Procedure, shortened: as §1

Bacteroides fragilis NT = experiment: IC25 growth inhibition; higher = less potent
Procedure, shortened: as §1

[3] = tested on: Fusobacterium nucleatum subsp. Nucleatum; experiment: IC25 growth inhibition; higher = less potent
Procedure, shortened: as §1

Escherichia coli ED1a = experiment: IC25 growth inhibition; higher = less potent
Procedure, shortened: as §1

[4] = tested on: Bacteroides thetaiotaomicron; experiment: IC25 growth inhibition; higher = less potent
Procedure, shortened: as §1

Shigella flexneri = experiment: IC25 growth inhibition; higher = less potent
Procedure, shortened: as §1

[5] = tested on: Clostridium saccharolyticum; experiment: IC25 growth inhibition; higher = less potent
Procedure, shortened: as §1

Clostridium perfringens = experiment: IC25 growth inhibition; higher = less potent
Procedure, shortened: as §1

Eubacterium rectale = experiment: IC25 growth inhibition; higher = less potent
Procedure, shortened: as §1

Vibrio cholerae = experiment: IC25 growth inhibition; higher = less potent
Procedure, shortened: as §1

Streptococcus salivarius = experiment: IC25 growth inhibition; higher = less potent
Procedure, shortened: as §1

Coprococcus comes = experiment: IC25 growth inhibition; higher = less potent
Procedure, shortened: as §1

Bacteroides vulgatus = experiment: IC25 growth inhibition; higher = less potent
Procedure, shortened: as §1

[6] = tested on: Streptococcus parasanguinis; experiment: IC25 growth inhibition; higher = less potent
Procedure, shortened: as §1

Bacteroides uniformis = experiment: IC25 growth inhibition; higher = less potent
Procedure, shortened: as §1

[7] = tested on: Salmonella enterica typhimurium; experiment: IC25 growth inhibition; higher = less potent
Procedure, shortened: as §1

[8] = tested on: Com21 synthetic gut community; experiment: community biomass OD578 after 24 h drug treatment relative to untreated (fraction of untreated control); higher = more community growth; details: community: Com21 (Com20 + E. coli ED1a)
Method: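 Com21 (Com20 plus E. coli ED1a) was treated with drug for 24 h under anaerobic conditions in mGAM. Community OD578 was then measured and normalised to untreated Com21; mean of 3 biological replicates.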
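Wherever IC25 growth inhibition is given: lowest concentration where monotonic median growth AUC falls below 0.75 of drug-free control.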

SMILES	IC25 growth inhibition [1] [µM]	IC25 growth inhibition (Ruminococcus gnavus) [µM]	IC25 growth inhibition (Roseburia intestinalis) [µM]	IC25 growth inhibition (Clostridium ramosum) [µM]	IC25 growth inhibition (Dorea formicigenerans) [µM]	IC25 growth inhibition [2] [µM]	IC25 growth inhibition (Parabacteroides merdae) [µM]	IC25 growth inhibition (Clostridium bolteae) [µM]	IC25 growth inhibition (Collinsella aerofaciens) [µM]	IC25 growth inhibition (Bacteroides fragilis NT) [µM]	IC25 growth inhibition [3] [µM]	IC25 growth inhibition (Escherichia coli ED1a) [µM]	IC25 growth inhibition [4] [µM]	IC25 growth inhibition (Shigella flexneri) [µM]	IC25 growth inhibition [5] [µM]	IC25 growth inhibition (Clostridium perfringens) [µM]	IC25 growth inhibition (Eubacterium rectale) [µM]	IC25 growth inhibition (Vibrio cholerae) [µM]	IC25 growth inhibition (Streptococcus salivarius) [µM]	IC25 growth inhibition (Coprococcus comes) [µM]	IC25 growth inhibition (Bacteroides vulgatus) [µM]	IC25 growth inhibition [6] [µM]	IC25 growth inhibition (Bacteroides uniformis) [µM]	IC25 growth inhibition [7] [µM]	community biomass OD578 ([8]; drug pretreatment concentration 10 µM)	community biomass OD578 ([8]; drug pretreatment concentration 20 µM)	community biomass OD578 ([8]; drug pretreatment concentration 40 µM)	community biomass OD578 ([8]; drug pretreatment concentration 80 µM)	community biomass OD578 ([8]; drug pretreatment concentration 160 µM)
Cc1ncc([N+](=O)[O-])n1CCO [Metronidazol]	≤ 160	< 1.25	< 1.25	< 1.25	< 1.25	> 160	< 1.25	< 1.25	< 1.25	< 1.25	< 1.25	> 160	< 1.25	> 160	< 1.25	< 1.25	< 1.25	≤ 160	> 160	< 1.25	< 1.25	≤ 160	< 1.25						
CCOC(=O)C1=C(C)NC(C)=C(C(=O)OC)C1c1cccc(Cl)c1Cl (configuration not stated) [Felodipine]	> 80	≤ 40	≤ 10		≤ 20	> 20	≤ 40		≤ 40	≤ 20	> 40	> 40	≤ 40	> 80			≤ 20	> 80	≤ 10	> 40	≤ 20	≤ 40	≤ 20	> 20					
CCOC(=O)C1=C(COCCN)NC(C)=C(C(=O)OC)C1c1ccccc1Cl (configuration not stated) [Amlodipine]	> 80	≤ 80	≤ 40		≤ 40	> 80	≤ 80		≤ 80	≤ 80	≤ 80	> 80	≤ 80	> 80			≤ 80	> 80	≤ 40	> 80	≤ 40	> 80	≤ 80	> 80					
CCN(CC)CCOc1ccc(C(=C(Cl)c2ccccc2)c2ccccc2)cc1 [Clomiphene]																									0.947	0.955	0.845	0.398	0.335
CN[C@H](CC(C)C)C(=O)N[C@H]1C(=O)N[C@@H](CC(N)=O)C(=O)N[C@H]2C(=O)N[C@H]3C(=O)N[C@H](C(=O)N[C@H](C(=O)O)c4cc(O)cc(O)c4-c4cc3ccc4O)[C@H](O)c3ccc(c(Cl)c3)Oc3cc2cc(c3O[C@@H]2O[C@H](CO)[C@@H](O)[C@H](O)[C@H]2O[C@H]2C[C@](C)(N)[C@H](O)[C@H](C)O2)Oc2ccc(cc2Cl)[C@H]1O [Vancomycin]	> 160	< 1.25	< 1.25	≤ 2.5	< 1.25	> 160	≤ 10	< 1.25	< 1.25	≤ 10	≤ 160	> 160	≤ 40	> 160	< 1.25	< 1.25	< 1.25	> 160	< 1.25	< 1.25	≤ 2.5	< 1.25	≤ 20	> 160					
CNCCC(Oc1ccc(C(F)(F)F)cc1)c1ccccc1 (configuration not stated) [Fluoxetine]	≤ 160	≤ 80	≤ 80	> 160	≤ 40	≤ 160	≤ 80	> 160	≤ 160	≤ 160	≤ 80	> 160	≤ 160	> 160	≤ 160	≤ 160	≤ 40	≤ 160	≤ 80	≤ 160	≤ 80	> 160	≤ 80	> 160					
CCn1cc(C(=O)O)c(=O)c2cc(F)c(N3CCNCC3)cc21 [Norfloxacin]	≤ 10	≤ 10	≤ 160	≤ 160	≤ 10	≤ 10	≤ 40	≤ 20	≤ 10	≤ 80	≤ 20	< 1.25	≤ 80	< 1.25	≤ 40	≤ 2.5	≤ 40	< 1.25	≤ 10	≤ 20	≤ 80	≤ 20	≤ 20	< 1.25					
CN[C@H]1CC[C@@H](c2ccc(Cl)c(Cl)c2)c2ccccc21 [Sertraline]	≤ 160	≤ 40	≤ 40	≤ 80	≤ 80	≤ 80	≤ 80	≤ 160	≤ 80	≤ 160	≤ 160	≤ 160	≤ 80	≤ 160	≤ 80	≤ 80	≤ 10	≤ 80	≤ 80	≤ 160	> 160	≤ 160	≤ 160	> 160					
N=C(N)c1ccc(OCCCCCOc2ccc(C(=N)N)cc2)cc1 [Pentamidine Isothionate]	≤ 160	≤ 2.5	≤ 5	≤ 40	< 1.25	> 80	≤ 5	> 160	≤ 10	≤ 80	≤ 10	> 160	≤ 20	≤ 160	≤ 10	≤ 2.5	≤ 5	> 160	≤ 10	< 1.25	≤ 20	≤ 10	≤ 20						
